Measurements from US8877944B2, “3-oxo-2,3-dihydro-1H-isoindole-4-carboxamides as PARP inhibitors” (Nerviano Medical Sciences S.R.L., priority 2009, dated 2014).
Read-outs that look alike come from different tables or passages of the source.

Tests used:
[1] = tested on: ovarian cancer with confirmed BRCA-1 mutations; details: ovarian cancer patients with confirmed BRCA-1 mutations, monotherapy; cited from earlier work
[2] = tested on: PAR formation in HeLa cells; test: Cellular PAR assay: inhibition of hydrogen peroxide induced PAR formation; details: Homo sapiens, read-out: PAR assay IC50
Experimental: Compounds potencies were evaluated by measuring the inhibition of poly (ADP-ribose) (PAR) chains formation as a marker for PARP-1 inhibition.
Cellular activity of PARP-1 inhibitors was assessed by measuring the inhibition of the hydrogen peroxide induced PAR formation in HeLa cells (ECACC). Cellular PAR levels were measured by immunocytochemistry, and quantified using an ArrayScan vTi instrument (Cellomics Thermo Scientific).
Test compounds were then added at the required concentration for 30′. […] Concentration curves were prepared in MEM/10% FCS from compound stocks in DMSO, and final DMSO concentration was 0.002% (v/v). Duplicate wells for each concentration point were prepared with a typical highest compound concentration of 20 μM and serial dilution 1:3. […] Non-specific binding sites were blocked by incubating wells for 30 min in PBS containing 5% (w/v) FBS 0.05% tween20. […] After washing further 3 times in PBS, cellular PAR immunoreactivity was assessed using the ArrayScan vTi instrument, with a Zeiss 10×0.5 N.A. objective, and applying the Cytotoxicity.V3 algorithm (Cellomics/Thermo Fisher) with a XF100 filter. At least 10 fields, corresponding to at least 900 cells, were read for each well.
The following formula is used: IC50=Bottom+(Top-Bottom)/(1+10^((LogEC50−X))); X is the logarithm of concentration. IC50 is the response; IC50 starts at Bottom and goes to Top with a sigmoid shape.

PARP-2 FL = PARP-2 FL (Homo sapiens (Human), UniProt Q9UGN5); test: Fluorescence polarization probe displacement assay, PARP-2; assay type: binding
Chain of PARP-2 FL (Q9UGN5 whole entry): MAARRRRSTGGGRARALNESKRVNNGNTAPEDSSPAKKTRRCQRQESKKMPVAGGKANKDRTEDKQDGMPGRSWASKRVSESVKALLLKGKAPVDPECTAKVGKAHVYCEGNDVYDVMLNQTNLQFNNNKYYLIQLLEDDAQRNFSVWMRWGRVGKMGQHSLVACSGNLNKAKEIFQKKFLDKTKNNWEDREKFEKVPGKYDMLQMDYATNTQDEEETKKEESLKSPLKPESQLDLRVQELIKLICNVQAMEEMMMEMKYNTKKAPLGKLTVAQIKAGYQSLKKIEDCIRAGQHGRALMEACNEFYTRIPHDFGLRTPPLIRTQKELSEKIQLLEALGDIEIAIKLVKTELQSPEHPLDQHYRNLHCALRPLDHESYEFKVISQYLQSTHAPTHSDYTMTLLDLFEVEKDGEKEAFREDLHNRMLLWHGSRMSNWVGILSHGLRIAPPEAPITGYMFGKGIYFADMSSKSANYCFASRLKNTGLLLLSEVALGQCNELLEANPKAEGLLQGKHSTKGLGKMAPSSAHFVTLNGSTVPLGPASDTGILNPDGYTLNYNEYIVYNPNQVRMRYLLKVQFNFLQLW
Experimental: (§1) Affinity evaluation of the tested compounds and their selectivity with respect to the different PARP isoforms of interest was assessed in a displacement assay.
(§2) The polarization signal can be measured, e.g., by a plate reader such as the Saphire2 (Tecan). The displacement ability of the test compound is in correlation with the compound affinity for the NAD pocket of the enzyme.
(§3) The assay performances were then evaluated (Z′ factor) as well as the displacement of the probe by its scaffold and known commercially available PARP inhibitors. In all of the experiments, the polarization signal was measured using a Saphire2 plate reader (Tecan). Data analysis was performed using Dynafit software. In particular, titration data were fitted to the following equilibria: Enzyme+probe <==> Complex Enzyme-probe, while displacement data were fitted to the following equilibria: Enzyme+probe <==> Complex Enzyme-probe, Enzyme+Compound <==> Complex Enzyme-Compound, whereby binding of probe and compound on the enzyme are mutually exclusive (pure competitive mechanism). Displacement data were also fitted using Excell spreadsheet (Microsoft Inc. Seattle, USA) to a four parameter logistic model (4PL), or Hill-Slope model to calculate DC50s where the DC50 value represents the compound concentration at which the polarization signal is diminished by 50% compared to untreated controls.
(§4) KD values, are the average of three independent experiments.

PARP-1 FL = PARP-1 FL (Homo sapiens (Human), UniProt P09874); test: Fluorescence polarization probe displacement assay, PARP-1; assay type: binding; details: for DC50: half maximal displacement concentration
Chain of PARP-1 FL (P09874 whole entry): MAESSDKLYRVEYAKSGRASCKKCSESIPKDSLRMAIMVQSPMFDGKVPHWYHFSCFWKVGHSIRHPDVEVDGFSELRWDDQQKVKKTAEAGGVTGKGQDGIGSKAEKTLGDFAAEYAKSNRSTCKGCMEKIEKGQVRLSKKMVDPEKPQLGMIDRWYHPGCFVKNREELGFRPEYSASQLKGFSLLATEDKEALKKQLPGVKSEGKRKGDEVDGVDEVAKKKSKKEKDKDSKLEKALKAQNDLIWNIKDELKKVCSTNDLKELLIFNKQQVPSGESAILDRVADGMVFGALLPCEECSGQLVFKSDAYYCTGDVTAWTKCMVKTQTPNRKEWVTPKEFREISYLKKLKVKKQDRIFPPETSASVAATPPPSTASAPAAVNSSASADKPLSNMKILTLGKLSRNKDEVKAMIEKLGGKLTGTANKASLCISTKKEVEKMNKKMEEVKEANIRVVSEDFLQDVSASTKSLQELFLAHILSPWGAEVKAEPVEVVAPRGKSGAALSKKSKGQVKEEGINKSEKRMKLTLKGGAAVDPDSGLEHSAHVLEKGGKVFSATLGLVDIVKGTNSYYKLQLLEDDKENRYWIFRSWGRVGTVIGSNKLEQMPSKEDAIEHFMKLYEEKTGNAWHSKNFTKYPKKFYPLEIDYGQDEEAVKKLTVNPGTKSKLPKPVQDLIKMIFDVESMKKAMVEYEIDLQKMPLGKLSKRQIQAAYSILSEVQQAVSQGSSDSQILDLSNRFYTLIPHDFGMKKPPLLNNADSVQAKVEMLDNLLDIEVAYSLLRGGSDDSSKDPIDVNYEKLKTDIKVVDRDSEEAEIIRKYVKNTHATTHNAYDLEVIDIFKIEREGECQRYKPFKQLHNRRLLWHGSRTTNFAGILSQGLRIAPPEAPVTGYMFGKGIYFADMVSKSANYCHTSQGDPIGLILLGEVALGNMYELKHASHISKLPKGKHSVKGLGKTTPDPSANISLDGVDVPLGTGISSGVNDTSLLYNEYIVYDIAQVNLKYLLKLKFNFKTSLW
Experimental: as §1, §2, §3, §4

PARP-3 FL = PARP-3 FL (Homo sapiens (Human), UniProt Q9Y6F1); test: Fluorescence polarization probe displacement assay, PARP-3; assay type: binding; details: half maximal displacement concentration
Chain of PARP-3 FL (Q9Y6F1 whole entry): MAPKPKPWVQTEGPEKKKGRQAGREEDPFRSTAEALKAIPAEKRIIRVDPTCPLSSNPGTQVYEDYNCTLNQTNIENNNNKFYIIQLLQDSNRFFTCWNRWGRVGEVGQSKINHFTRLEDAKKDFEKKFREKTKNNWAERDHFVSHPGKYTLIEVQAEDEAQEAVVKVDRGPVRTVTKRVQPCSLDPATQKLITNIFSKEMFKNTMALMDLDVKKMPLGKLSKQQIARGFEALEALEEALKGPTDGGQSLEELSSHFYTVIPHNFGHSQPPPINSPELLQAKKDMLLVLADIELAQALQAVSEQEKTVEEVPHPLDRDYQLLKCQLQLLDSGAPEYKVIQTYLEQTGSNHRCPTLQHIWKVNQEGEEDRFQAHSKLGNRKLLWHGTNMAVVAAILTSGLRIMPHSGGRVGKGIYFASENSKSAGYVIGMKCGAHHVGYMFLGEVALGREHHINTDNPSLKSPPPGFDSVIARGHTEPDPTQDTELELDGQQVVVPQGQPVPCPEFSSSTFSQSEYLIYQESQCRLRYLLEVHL
Experimental: as §1, §2, §3, §4

[3] = Pharmacokinetics and oral bioavailability in the mouse; details: for C-max (oral): 10 mg/kg single oral dose, mean value; for F on AUC / Vd / clearance / AUC / half-life: 10 mg/kg; for F on AUC: oral vs IV dose-normalized AUC; for Vd / clearance / AUC / half-life: male, Balb Nu/Nu, plasma; for Vd / clearance: iv; for AUC / half-life: po
Experimental: The compounds were formulated in 10% tween 80/dextrose for intravenous bolus administration while oral administrations were performed using the compounds formulated in 0.5% methylcellulose. A single administration at the dose of 10 mg/kg was given and three male animals for each route were used. […] Plasma samples were prepared by plasma proteins precipitation adding 200 μL of methanol to 10 μL of plasma in a 96 well plate. […] The supernatant was considered as final extract and injected onto the LC-MS-MS system (HPLC system: Hewlett Packard 1100 series using Atlantis HILIC Silica 50*2.1 mm 5.0 μm analytical column; MS instrument: Perkin Elmer SCIEX API 2000 and ionization performed with Turbo Ion Spray in positive ion mode). Lower limit of quantification is 5.0 ng/mL, upper limit of quantification is 10000 ng/mL. […] Non-compartmental method (linear trapezoidal rule and linear regression analysis of natural log-transformed plasma concentrations vs. time data) was used. After intravenous dosing, C0 was set equal to C0.083 Absolute bioavailability (F) was calculated from the ratio of average oral to IV (intravenous) dose-normalized plasma AUC (area under curve) values.

[4] = tested on: Capan-1 human pancreatic cancer tumors; test: In vivo efficacy, single agent, Capan-1 BRCA-2 mutated mouse model
Experimental: Fragments of Capan-1 human pancreatic cancer tumors were implanted subcutaneously. Mice bearing a palpable tumor (100-200 mm^3) were selected and randomized into control and treated groups. Each group included seven animals. The treatment started one day after randomization. Compound of formula (I) was administered by oral route as a methocel suspension at the indicated doses and times. Tumor dimension was measured regularly by calipers during the experiments and tumor mass was calculated as described in Simeoni M. et al., Cancer Res 64, 1094-1101 (2004).

[5] = read-out: PARP-2 DC50; half maximal displacement concentration
[6] = compound P3 as the probe, 100 nM PARP-1
[7] = half maximal displacement concentration; read-out: PARP-2 DC50
[8] = compound P1 as the probe, 250 nM PARP-1
[9] = 100 mg/kg oral, days 1-14 daily
[10] = 100 mg/kg oral, days 1-6 twice a day
[11] = 100 mg/kg oral, days 1-15 daily

IC50 [2] | DC50 (PARP-2 FL; [5]) | DC50 (PARP-1 FL) | SMILES | Kd (PARP-1 FL; [6]) | DC50 (PARP-3 FL) | AUC [3] | further results
 |  |  | O=C(c1cc(Cc2n[nH]c(=O)c3ccccc23)ccc1F)N1CCN(C(=O)C2CC2)CC1 [AZD2281] |  |  |  | partial responses [1]: 4 out of 10
160 nM | > 10000 nM | < 250 nM | CO[C@H]1CC[C@H](N2CCC(N3Cc4cccc(C(N)=O)c4C3=O)CC2)CC1 [Compound 2, 2-[1-(Trans-4-methoxycyclohexyl)piperidin-4-yl]-3-oxo-2,3-dihydro-1H-isoindole-4-carboxamide] | 25 nM | 6000 nM |  | 
 |  |  | NC(=O)c1cccc2c1C(=O)N(C1CCN(C3CCC(F)(F)CC3)CC1)C2 [Compound 7, 2-[1-(4,4-Difluorocyclohexyl)-piperidin-4-yl]-3-oxo-2,3-dihydro-1H-isoindole-4-carboxylic acid amide] |  | 3540 nM |  | Max TGI (%) ([4]; 80 mg/kg oral, days 1-8 daily): 47%; Toxicity (body weight reduction, mice out of 7) ([4]; 80 mg/kg oral, days 1-8 daily): 0/7
530 nM | > 10000 nM | 280 nM | NC(=O)c1cccc2c1C(=O)N(C1CCN(C3CCC4(CC3)OCCO4)CC1)C2 [Compound 8, 2-[1-(1,4-Dioxaspiro[4.5]dec-8-yl)piperidin-4-yl]-3-oxo-2,3-dihydro-1H-isoindole-4-carboxamide] |  | > 10000 nM |  | Kd (PARP-1 FL; [8]): 130 nM
 |  |  | NC(=O)c1cccc2c1C(=O)N(C1CCN(Cc3ccc4[nH]ccc4c3)CC1)C2 [Compound 29, 2-[1-(1H-indol-5-ylmethyl)piperidin-4-yl]-3-oxo-2,3-dihydro-1H-isoindole-4-carboxamide] |  |  |  | Max TGI (%) [4, 9]: 38%; Toxicity (body weight reduction, mice out of 7) [4, 9]: 0/7
 |  |  | NC(=O)c1cc(F)cc2c1C(=O)N(C1CCN(C3CCC(F)(F)CC3)CC1)C2 [Compound 99, 2-[1-(4,4-Difluorocyclohexyl)-piperidin-4-yl]-6-fluoro-3-oxo-2,3-dihydro-1H-isoindole-4-carboxamide] |  | 1580 nM | 19.6 µM·h | Max TGI (%) [4, 11]: 55%; Toxicity (body weight reduction, mice out of 7) [4, 11]: 0/7
80 nM | 3770 nM | < 250 nM | NC(=O)c1cc(F)cc2c1C(=O)N(C1CCN(C3CCC(=O)CC3)CC1)C2 [Compound 103, 6-Fluoro-3-oxo-2-[1-(4-oxocyclohexyl)piperidin-4-yl]-2,3-dihydro-1H-isoindole-4-carboxamide] | < 10 nM | 4670 nM |  | 
410 nM | > 10000 nM | 280 nM | COCCN1CCC(N2Cc3cccc(C(N)=O)c3C2=O)CC1 [Compound 106, 2-[1-(2-Methoxyethyl)piperidin-4-yl]-3-oxo-2,3-dihydro-1H-isoindole-4-carboxamide] |  | 2550 nM |  | Kd (PARP-1 FL; [8]): 110 nM

SMILES | IC50 [2] | DC50 (PARP-2 FL; [5]) | DC50 (PARP-1 FL) | Kd (PARP-1 FL; [6]) | DC50 (PARP-3 FL) | AUC [3] | further results
NC(=O)c1cccc2c1C(=O)N(C1CCN([C@H]3CC[C@@H](CO)CC3)CC1)C2 [Compound 3, 2-{1-[Cis-4-(hydroxymethyl)cyclohexyl]piperidin-4-yl}-3-oxo-2,3-dihydro-1H-isoindole-4-carboxamide] | 140 nM |  | < 250 nM | 13 nM | 2300 nM | 2.39 µM·h | C-max (oral) [3]: 1.17 µM; F on AUC [3]: 82.5%; Vd [3]: 4.75 L/kg; clearance [3]: 104 mL/min/kg; half-life [3]: 1.75 h; DC50 (PARP-2 FL; [7]): > 10000 nM
NC(=O)c1cccc2c1C(=O)N(C1CCN([C@H]3CC[C@H](CO)CC3)CC1)C2 [Compound 4, 2-{1-[Trans-4-(hydroxymethyl)cyclohexyl]piperidin-4-yl}-3-oxo-2,3-dihydro-1H-isoindole-4-carboxamide] | 90 nM |  | < 250 nM | 20 nM | 4900 nM | 1.3 µM·h | C-max (oral) [3]: 0.4 µM; F on AUC [3]: 55%; Vd [3]: 5.95 L/kg; clearance [3]: 135 mL/min/kg; half-life [3]: 1.42 h; DC50 (PARP-2 FL; [7]): > 10000 nM
CC(C)n1cc(CN2CCC(N3Cc4cccc(C(N)=O)c4C3=O)CC2)c2ccccc21 [Compound 32, 3-oxo-2-(1-{[1-(propan-2-yl)-1H-indol-3-yl]methyl}piperidin-4-yl)-2,3-dihydro-1H-isoindole-4-carboxamide] | 380 nM |  | < 250 nM | 40 nM | 270 nM | 1.48 µM·h | Max TGI (%) [4, 10]: 32%; Toxicity (body weight reduction, mice out of 7) [4, 10]: 0/7; C-max (oral) [3]: 0.43 µM; F on AUC [3]: 24%; Vd [3]: 2.78 L/kg; clearance [3]: 59.5 mL/min/kg; half-life [3]: 1.84 h; DC50 (PARP-2 FL; [7]): > 10000 nM
